{"source": "patent US5874442A", "about": "“Tricyclic amides useful for inhibition of G-protein function and for treatment of proliferative disease” (Schering-Plough Corporation, priority 1996, dated 1999)", "key": {"[1]": {"test_system": "K ras NIH 3T3", "assay": "Soft agar assay", "format": "cell-based", "conditions": "Mus musculus, NIH3T3, read-out: IC50, inhibition of human tumor cell growth, soft agar"}, "[2]": {"test_system": "H ras NIH 3T3", "assay": "Soft agar assay", "format": "cell-based", "conditions": "Mus musculus, NIH3T3, read-out: IC50, inhibition of human tumor cell growth, soft agar"}, "[3]": {"test_system": "A549", "assay": "Soft agar assay", "format": "cell-based", "conditions": "Homo sapiens; A549 (lung) K ras mutation; read-out: IC50, inhibition of human tumor cell growth, soft agar", "method": "(§1) Anchorage-independent growth is a characteristic of tumorigenic cell lines. Human tumor cells are suspended in growth medium containing 0.3% agarose and an indicated concentration of a farnesyl transferase inhibitor. The solution is overlayed onto growth medium solidified with 0.6% agarose containing the same concentration of farnesyl transferase inhibitor as the top layer. […] After incubation, the colonies are stained by overlaying the agar with a solution of MTT (3-[4,5-dimethylthiazol-2-yl]-2,5-diphenyltetrazolium bromide, Thiazolyl blue) (1 mg/mL in PBS). Colonies are counted and the IC50's determined."}, "[4]": {"test_system": "HTB 175", "assay": "Soft agar assay", "format": "cell-based", "conditions": "Homo sapiens; HTB 175 (SCLC) ras mut. not detected; read-out: IC50, inhibition of human tumor cell growth, soft agar", "method": "as §1"}, "[5]": {"test_system": "HTB 177", "assay": "Soft agar assay", "format": "cell-based", "conditions": "Homo sapiens; HTB 177 (NSCLC) K ras mutation; read-out: IC50, inhibition of human tumor cell growth, soft agar", "method": "as §1"}, "[6]": {"test_system": "DLD-1 (human colon carcinoma cells)", "assay": "In vivo anti-tumor studies, subcutaneous DLD-1 tumors in athymic nu/nu mice", "parameters": "species or system athymic nu/nu female mice", "conditions": "Mus musculus, DLD-1, po, […], QID, 7 days per week for 4 weeks, read-out: Average % Tumor Inhibition; for inhibition in vivo at 50 mg/kg: 50 mg/kg p.o.; for inhibition in vivo at 10 mg/kg: 10 mg/kg p.o.", "quoted_text": "Tumor bearing animals are selected and randomized when the tumors are established. Animals are treated with vehicle (β-cyclodextrin for i.p. or corn oil for p.o.) only or with a compound of the present invention in vehicle four times a day (QID) for 7 days per week for 4 weeks. The percent inhibition of tumor growth relative to vehicle controls is determined by tumor measurements."}, "[7]": {"biological_target": "T1, farnesyl protein transferase (FPT) (Rattus norvegicus, UniProt Q02293+Q04631)", "T1 construct": "were partially purified from rat brain by ammonium sulfate fractionation; from tissue; host or cells: rat brain (ammonium sulfate fractionation, Q-Sepharose)", "assay": "In vitro enzyme assay: inhibition of farnesyl protein transferase (FPT), [3H]farnesyl transfer to Ras-CVLS", "format": "biochemical", "method": "(§2) 1. In vitro enzyme assays:\n(§3) Inhibition of farnesyl protein transferase and geranylgeranyl protein transferase.\nHuman farnesyl protein transferase was also expressed in E. coli, using cDNA clones encoding both the a and b subunits. […] Human farnesyl protein transferase was partially-purified from the soluble protein fraction of E. coli as described above. […] Two forms of val^12 -Ha-Ras protein were prepared as substrates for these enzymes, differing in their carboxy terminal sequence. One form terminated in cysteine-valine-leucine-serine (Ras-CVLS) the other in cystein-valine-leucine-leucine (Ras-CVLL). Ras-CVLS is a substrate for the farnesyl protein transferase while Ras-CVLL is a substrate for geranylgeranyl protein transferase I. The cDNAs encoding these proteins were constructed so that the proteins contain an amino-terminal extension of 6 histidine residues. Both proteins were expressed in Escherichia coli and purified using metal chelate affinity chromatography. The radiolabelled isoprenyl pyrophosphate substrates, [^3 H]farnesyl pyrophosphate and [^3 H] geranylgeranyl pyrophosphate, were purchased from DuPont/New England Nuclear.\nThe reaction was allowed to proceed for 30 minutes at room temperature and then stopped with 0.5 ml of 4% sodium dodecyl sulfate (SDS) followed by 0.5 ml of cold 30% TCA. Samples were allowed to sit on ice for 45 minutes and precipitated Ras protein was then collected on GF/C filter paper mats using a Brandel cell harvester. […] Percent inhibition was calculated relative to the DMSO vehicle control."}, "[8]": {"biological_target": "T2, geranylgeranyl protein transferase (GGPT) I (Rattus norvegicus, UniProt P53610+Q04631)", "T2 construct": "were partially purified from rat brain by ammonium sulfate fractionation; from tissue; host or cells: rat brain (ammonium sulfate fractionation, Q-Sepharose)", "T2 sequence (P53610 whole entry, one chain of several)": "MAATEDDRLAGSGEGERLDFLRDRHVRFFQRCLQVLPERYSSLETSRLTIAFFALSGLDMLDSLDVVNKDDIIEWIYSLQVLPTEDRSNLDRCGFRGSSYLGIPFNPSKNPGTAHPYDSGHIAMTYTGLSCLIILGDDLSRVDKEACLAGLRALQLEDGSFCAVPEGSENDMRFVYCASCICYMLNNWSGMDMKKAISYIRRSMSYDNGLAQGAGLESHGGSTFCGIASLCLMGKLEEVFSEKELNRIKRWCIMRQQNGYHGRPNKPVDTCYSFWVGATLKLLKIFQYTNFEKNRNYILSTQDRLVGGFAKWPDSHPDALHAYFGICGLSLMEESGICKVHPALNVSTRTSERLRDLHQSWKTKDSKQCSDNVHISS", "assay": "In vitro enzyme assay: inhibition of geranylgeranyl protein transferase I (GGPT), Ras-CVLL as acceptor", "format": "biochemical", "text": "as §2, §3\nBoth farnesyl protein transferase (FPT) and geranylgeranyl protein transferase (GGPT) I were partially purified from rat brain by ammonium sulfate fractionation followed by Q-Sepharose (Pharmacia, Inc.) anion exchange chromatography essentially as described by Yokoyama et al (Yokoyama, K., et al., (1991), A protein geranylgeranyltransferase from bovine brain: Implications for protein prenylation specificity, Proc. Natl. Acad. Sci USA 88: 5302-5306, the disclosure of which is incorporated herein by reference thereto). Human farnesyl protein transferase was also expressed in E. coli, using cDNA clones encoding both the a and b subunits. The methods used were similar to those published (Omer, C. et al., (1993), Characterization of recombinant human farnesyl protein transferase: Cloning, expression, farnesyl diphosphate binding, and functional homology with yeast prenyl-protein transferases, Biochemistry 32:5167-5176). Human farnesyl protein transferase was partially-purified from the soluble protein fraction of E. coli as described above. The tricyclic farnesyl protein transferase inhibitors disclosed herein inhibited both human and rat enzyme with similar potencies. […]"}, "[9]": {"test_system": "Ras-CVLS processing in COS cells", "assay": "Cell-based COS cell assay: inhibition of Ras processing (Ras-CVLS)", "parameters": "species or system monkey", "conditions": "Primates, COS", "text": "(§4) Transient expression of val^12 -Ha-Ras-CVLS and […] -Ha-Ras-CVLL in COS monkey kidney cells: Effect of farnesyl protein transferase inhibitors on Ras processing and on disordered cell growth induced by transforming Ras.\n(§5) COS monkey kidney cells were transfected by electroporation with the plasmid pSV-SPORT (Gibco/BRL) containing a cDNA insert encoding either Ras-CVLS or Ras-CVLL, leading to transient overexpression of a Ras substrate for either farnesyl protein transferase or geranylgeranyl protein transferase I, respectively (see above).\nFollowing electroporation, cells were plated into 6-well tissue culture dishes containing 1.5 ml of Dulbecco's-modified Eagle's media (GIBCO, Inc.) supplemented with 10% fetal calf serum and the appropriate farnesyl protein transferase inhibitors. After 24 hours, media was removed and fresh media containing the appropriate drugs was re-added.\n48 hours after electroporation cells were examined under the microscope to monitor disordered cell growth induced by transforming Ras. Cells expressing transforming Ras become more rounded and refractile and overgrow the monolayer, reminiscent of the transformed phenotype. Cells were then photographed, washed twice with 1 ml of cold phosphate-buffered saline (PBS) and removed from the dish by scraping with a rubber policeman into 1 ml of a buffer containing 25 mM Tris, pH 8.0; 1 mM ethylenediamine tetraacetic acid; 1 mM phenylmethylsulfonyl fluoride; […]; and 0.1 mM pepstatin. Cells were lysed by homogenization and cell debris was removed by centrifugation at 2000× g for 10 min.\nCellular protein was precipitated by addition of ice-cold trichloroacetic acid and redissolved in […] of SDS-electrophoresis sample buffer. […] Proteins resolved on the gels were electroblotted onto nitrocellulose membranes for immunodetection.\nAfter washing, membranes were incubated for one hour at room temperature with a 1:5000 dilution of secondary antibody, rabbit anti-rat lgG conjugated to horseradish peroxidase, in PBS containing 1% fetal calf serum. The presence of processed and unprocessed Ras-CVLS or Ras-CVLL was detected using a colorimetric peroxidase reagent (4-chloro-1-naphthol) as described by the manufacturer (Bio-Rad)."}, "[10]": {"test_system": "T24-BAG4 human bladder carcinoma cells expressing an activated H-ras gene", "assay": "Cell mat assay, T24-BAG4 tumor cells", "format": "cell-based", "conditions": "Homo sapiens, 336 h, read-out: Tumor (T-24) IC50", "method": "(§6) Compound-induced colony inhibition was assayed by addition of serial dilutions of compound directly to the growth medium 24 h after tumor cell planting, and incubating cells for an additional 14 d to allow colony formation. Assays were terminated by rinsing monolayers twice with phosphate-buffered saline (PBS), fixing the monolayers with a 1% glutaraldehyde solution in PBS, then visualizing tumor cells by staining with X-Gal (Price, J., et al., Lineage analysis in the vertebrate nervous system by retrovirus-mediated gene transfer, Proc. Natl. Acad. Sci.84, 156-160(1987)). […] Both IC50 values were obtained by determining the density of tumor cells and mat cells by visual inspection and enumeration of cells per colony and the number of colonies under the microscope."}, "[11]": {"test_system": "DLD-1-BAG human colon carcinoma cells", "assay": "Cell mat assay, DLD-1-BAG tumor cells", "format": "cell-based", "conditions": "Homo sapiens, DLD-1, 336 h, read-out: Tumor (DLD-1) IC50", "method": "as §6\n(§7) Additional assays were carried out by following essentially the same procedure as described above, but with substitution of alternative indicator tumor cell lines in place of the T24-BAG cells. The assays were conducted using either DLD-1-BAG human colon carcinoma cells expressing as activated K-ras gene or SW620-BAG human colon carcinoma cells expressing an activated K-ras gene."}, "[12]": {"test_system": "SW620-BAG human colon carcinoma cells expressing an activated K-ras gene", "assay": "Cell mat assay, SW620-BAG tumor cells", "format": "cell-based", "conditions": "Homo sapiens, SW-620, 336 h, read-out: Tumor (SW620) IC50, Mat assay, 14 d", "method": "as §6, §7"}, "[13]": {"test_system": "Normal human HEPM fibroblasts", "assay": "Cell mat assay, normal cells (cell mat)", "format": "cell-based", "conditions": "Homo sapiens, Fibroblast, 336 h, read-out: Normal IC50", "method": "as §6"}, "[14]": {"test_system": "geranylgeranylation of Ras-CVLL in COS cells", "assay": "Cell-based COS cell assay: geranylgeranylation of Ras-CVLL", "parameters": "species or system monkey", "conditions": "at concentrations up to 33 μM", "text": "as §4\nas §5, with “above). […]” for “above).”\nMembranes were blocked by incubation overnight at 4° C. in PBS containing 2.5% dried milk and 0.5% Tween-20 and then incubated with a Ras-specific monoclonal antibody, Y13-259 (Furth, M. E., et al., (1982), Monoclonal antibodies to the p21 products of the transforming gene of Harvey murine sarcome virus and of the cellular ras gene family, J. Virol. 43:294-304), in PBS containing 1% fetal calf serum for one hour at room temperature. […] The presence of processed and unprocessed Ras-CVLS or Ras-CVLL was detected using a colorimetric peroxidase reagent (4-chloro-1-naphthol) as described by the manufacturer (Bio-Rad)."}}, "note": "Where two headings read alike, the source gives them in different places.", "data": [{"compound": "NC(=O)N1CCC(CC(=O)N2CCC(C3c4ncc(Br)cc4CCc4cc(Cl)cc(Cl)c43)CC2)CC1", "note": "(single isomer, unassigned) [Example 18]", "values": [{"measurement": "IC50", "setting": "[1]", "value": 800, "unit": "nM"}, {"measurement": "IC50", "setting": "[2]", "value": 175, "unit": "nM"}, {"measurement": "IC50", "setting": "[3]", "value": 300, "unit": "nM"}, {"measurement": "IC50", "setting": "[4]", "value": 600, "unit": "nM"}, {"measurement": "IC50", "setting": "[5]", "value": 200, "unit": "nM"}, {"measurement": "inhibition in vivo at 50 mg/kg", "setting": "[6]; Experiment No. 1", "value": 73, "unit": "%"}, {"measurement": "inhibition in vivo at 10 mg/kg", "setting": "[6]; Experiment No. 2", "value": 43, "unit": "%"}]}, {"compound": "O=C(Cc1cc[n+]([O-])cc1)N1CCN(C2c3ccc(Cl)c(Br)c3CCc3cc(Br)cnc32)CC1", "note": "(racemic) [Example 5B]", "values": [{"measurement": "IC50", "setting": "[7]", "value": "~3", "unit": "nM"}, {"measurement": "IC50", "setting": "[8]", "value": "> 300000", "unit": "nM"}, {"measurement": "IC50", "setting": "[9]; read-out: Inhibition of Ras Processing IC50, Table 3, COS cells", "value": 50, "unit": "nM"}, {"measurement": "IC50", "setting": "[10]", "value": "< 1600", "unit": "nM"}, {"measurement": "IC50", "setting": "[11]", "value": 3100, "unit": "nM"}, {"measurement": "IC50", "setting": "[12]", "value": 10000, "unit": "nM"}, {"measurement": "IC50", "setting": "[13]", "value": "> 25000", "unit": "nM"}]}, {"compound": "O=C(Cc1cc[n+]([O-])cc1)N1CCN(C2c3ncc(Br)cc3CCc3cccc(Cl)c32)CC1", "note": "(single isomer, unassigned) [Example 20]", "values": [{"measurement": "IC50", "setting": "[7]", "value": 6.2, "unit": "nM"}, {"measurement": "IC50", "setting": "[8]", "value": "> 38000", "unit": "nM"}]}, {"compound": "O=C(Cc1cc[n+]([O-])cc1)N1CCC(=C2c3ccc(Cl)c(Br)c3CCc3cc(Br)cnc32)CC1", "note": "[Example 2]", "values": [{"measurement": "IC50", "setting": "[9]; Table 3, COS cells, read-out: Inhibition of Ras Processing IC50", "value": 250, "unit": "nM"}, {"measurement": "block of geranylgeranylation of Ras-CVLL", "setting": "[14]", "value": "did not block the geranylgeranylation of Ras-CVLL"}, {"measurement": "inhibition in vivo at 50 mg/kg", "setting": "[6]; Experiment No. 1", "value": 47, "unit": "%"}, {"measurement": "inhibition in vivo at 10 mg/kg", "setting": "[6]; Experiment No. 2", "value": 25, "unit": "%"}, {"measurement": "inhibition in vivo at 50 mg/kg", "setting": "[6]; Experiment No. 3", "value": 52.7, "unit": "%"}, {"measurement": "inhibition in vivo at 10 mg/kg", "setting": "[6]; Experiment No. 4", "value": 31.9, "unit": "%"}]}]}
